This is an account of results in patent US20260098053A1, “COMPOSITIONS AND METHODS FOR TREATING CNS DISORDERS” (SAGE THERAPEUTICS, INC., priority 2019, published 2026).

The first assay concerns the target [35S]-TBPS binding, rat brain cortical membranes. In words: Steroid inhibition of [35S]-TBPS binding. The note with it: Table 4, 3 nM [35S]-TBPS, in the presence of 5 mM GABA, read-out: TBPS IC50. A digest of the protocol:
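Washed P2 cortical membranes from Sprague-Dawley rats, in 200 mM NaCl/50 mM Na-K phosphate pH 7.4, incubated 90 min at room temp with 3 nM [35S]-TBPS, […] GABA and test drug (0.5% DMSO final). Nonspecific binding defined with […] unlabeled TBPS; filtration and scintillation counting. IC50 and Imax from non-linear curve fits, means±SEM of experiments.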
`CC[C@@]1(O)CCC[C@@]2(C)[C@H](CC[C@@H]3[C@@H]2CC[C@]2(C)[C@H](C(=O)Cn4cc(C#N)cn4)CCC[C@@H]32)C1` [Example 39, 1-(2-((1R,4aS,4bR,6aR,8R,11aS,11bS,13aS)-8-ethyl-8-hydroxy-11a,13a-dimethyloctadecahydro-1H-cyclohepta[a]phenanthren-1-yl)-2-oxoethyl)-1H-pyrazole-4-carbonitrile]: the IC50 was greater than 1000 nM.
As for `CC(=O)[C@H]1CCC[C@H]2[C@@H]3CC[C@@H]4CC[C@](C)(O)CC[C@@H]4[C@H]3CC[C@]12C` [Example 1, 1-((1S,4aS,4bR,6aR,9S,11aS,11bR,13aS)-9-hydroxy-9,13a-dimethyloctadecahydro-1H-cyclohepta[a]phenanthren-1-yl)ethan-1-one], the IC50 was greater than 1000 nM.
On the same count and under the same terms, with `C[C@@]1(O)CCC[C@@]2(C)[C@H](CC[C@@H]3[C@@H]2CC[C@]2(C)[C@H](C(=O)Cn4cc(C#N)cn4)CCC[C@@H]32)C1` [Example 17, 1-(2-((1R,4aS,4bR,6aR,8R,11aS,11bS,13aS)-8-hydroxy-8,11a,13a-trimethyloctadecahydro-1H-cyclohepta[a]phenanthren-1-yl)-2-oxoethyl)-1H-pyrazole-4-carbonitrile] the figure was greater than 1000 nM; with `CC(=O)[C@H]1CCC[C@H]2[C@@H]3CC[C@@H]4C[C@](C)(O)CCC[C@@H]4[C@H]3CC[C@]12C` [Example 9, 1-((1S,4aS,4bR,6aR,8R,11aS,11bR,13aS)-8-hydroxy-8,13a-dimethyloctadecahydro-1H-cyclohepta[a]phenanthren-1-yl)ethan-1-one], less than 100 nM.
`CC[C@@]1(O)CCC[C@H]2[C@H](CC[C@@H]3[C@@H]2CC[C@]2(C)[C@@H](C(C)=O)CCC[C@@H]32)C1` [Example 13, 1-((1S,4aS,4bR,6aR,8R,11aS,11bR,13aS)-8-ethyl-8-hydroxy-13a-methyloctadecahydro-1H-cyclohepta[a]phenanthren-1-yl)ethan-1-one]: the IC50 was 100 to 1000 nM.
Regarding `COC[C@]1(O)CC[C@H]2CC[C@@H]3[C@H](CC[C@]4(C)[C@@H](C(=O)Cn5cc(C#N)cn5)CCC[C@@H]34)[C@H]2CC1` [Example 46, 1-(2-((1S,4aS,4bR,6aR,9S,11aS,11bR,13aS)-9-hydroxy-9-(methoxymethyl)-13a-methyloctadecahydro-1H-cyclohepta[a]phenanthren-1-yl)-2-oxoethyl)-1H-pyrazole-4-carbonitrile], the concentration for half-maximal inhibition (IC50) lay within 100 to 1000 nM.
As for `C[C@]1(O)CC[C@H]2CC[C@@H]3[C@H](CC[C@]4(C)[C@@H](C(=O)CCn5cc(C#N)cn5)CCC[C@@H]34)[C@H]2CC1` [Example 51, 1-(3-((1S,4aS,4bR,6aR,9S,11aS,11bR,13aS)-9-hydroxy-9,13a-dimethyloctadecahydro-1H-cyclohepta[a]phenanthren-1-yl)-3-oxopropyl)-1H-pyrazole-4-carbonitrile], the IC50 was in the range of 100 to 1000 nM.
`C[C@]1(O)CC[C@@H]2CC[C@@H]3[C@H](CC[C@]4(C)[C@@H](C(=O)CCn5cc(C#N)cn5)CCC[C@@H]34)[C@@]2(C)CC1` [Example 54, 1-(3-((1S,4aS,4bR,6aS,9S,11aS,11bS,13aS)-9-hydroxy-9,11a,13a-trimethyloctadecahydro-1H-cyclohepta[a]phenanthren-1-yl)-3-oxopropyl)-1H-pyrazole-4-carbonitrile]: the IC50 lay in the range of 100 to 1000 nM.
Regarding `CC[C@]1(O)CC[C@H]2CC[C@@H]3[C@H](CC[C@]4(C)[C@H](C(C)=O)CCC[C@@H]34)[C@H]2CC1` [Example 47, 1-((1R,4aS,4bR,6aR,9S,11aS,11bR,13aS)-9-ethyl-9-hydroxy-13a-methyloctadecahydro-1H-cyclohepta[a]phenanthren-1-yl)ethanone], the half-inhibitory concentration (IC50) was greater than 1000 nM.
For `Cc1nnn(CC(=O)[C@H]2CCC[C@H]3[C@@H]4CC[C@@H]5C[C@](C)(O)CCC[C@@H]5[C@H]4CC[C@]23C)n1` [Example 11, 1-((1S,4aS,4bR,6aR,8R,11aS,11bR,13aS)-8-hydroxy-8,13a-dimethyloctadecahydro-1H-cyclohepta[a]phenanthren-1-yl)-2-(5-methyl-2H-tetrazol-2-yl)ethan-1-one], the concentration for half-maximal inhibition (IC50) was less than 100 nM.
Take `Cc1nnn(CC(=O)[C@@H]2CCCC[C@H]3[C@@H]4CC[C@@H]5C[C@](C)(O)CCC[C@]5(C)[C@H]4CC[C@]23C)n1` [Example 64]: the concentration for half-maximal inhibition (IC50) fell in the range of 100 to 1000 nM.
Take `CC[C@]12CC[C@@](C)(O)C[C@H]1CC[C@H]1[C@@H]3CCCC[C@H](C(C)=O)[C@@]3(C)CC[C@@H]12` [Example 22]: the concentration for half-maximal inhibition (IC50) is less than 100 nM.
On the same count and under the same terms, then `CC[C@]12CC[C@H]3[C@@H](CC[C@@H]4C[C@](C)(O)CC[C@@H]43)[C@@H]1CCC[C@@H]2C(C)=O` [Example 27, 1-((1S,4aS,4bR,6aR,8R,10aS,10bR,12aS)-12a-ethyl-8-hydroxy-8-methyloctadecahydrochrysen-1-yl)ethanone], with less than 100 nM.
Same read-out and setting: then `C[C@@]1(O)CCC[C@@]2(C)[C@H](CC[C@@H]3[C@@H]2CC[C@]2(C)[C@@H](C(=O)CCn4cc(C#N)cn4)CCC[C@@H]32)C1` [Example 18, 1-(3-((1S,4aS,4bR,6aR,8R,11aS,11bS,13aS)-8-hydroxy-8,11a,13a-trimethyloctadecahydro-1H-cyclohepta[a]phenanthren-1-yl)-3-oxopropyl)-1H-pyrazole-4-carbonitrile], with less than 100 nM; and `CC[C@]12CC[C@H]3[C@@H](CC[C@@H]4CC[C@@](O)(COC)CC[C@@H]43)[C@@H]1CC[C@@H]2C(C)=O` [Example 32, 1-((1S,3aS,3bR,5aR,8S,10aS,10bR,12aS)-12a-ethyl-8-hydroxy-8-(methoxymethyl)octadecahydrocyclohepta[a]cyclopenta[f]naphthalen-1-yl)ethanone], with 100 to 1000 nM; and `CC[C@]12CC[C@H]3[C@@H](CC[C@@H]4C[C@](C)(O)CCC[C@@]43C)[C@@H]1CC[C@@H]2C(=O)Cn1cc(C#N)cn1` [Example 30, 1-(2-((1S,3aS,3bR,5aR,7R,10aS,10bS,12aS)-12a-ethyl-7-hydroxy-7,10a-dimethyloctadecahydrocyclohepta[a]cyclopenta[f]naphthalen-1-yl)-2-oxoethyl)-1H-pyrazole-4-carbonitrile], with less than 100 nM.

Staying with this assay, now noted: Table 5, 3 nM [35S]-TBPS, in the presence of 5 mM GABA, read-out: TBPS IC50.
Turning to `Cc1nnn(CC(=O)[C@H]2CC[C@H]3[C@@H]4CC[C@@H]5C[C@](C)(O)CC[C@@H]5[C@H]4CC[C@@H]32)n1` [Example 69, 1-((3R,5R,8R,9R,10S,13S,14S,17S)-3-hydroxy-3-methylhexadecahydro-1H-cyclopenta[a]phenanthren-17-yl)-2-(5-methyl-2H-tetrazol-2-yl)ethan-1-one], the IC50 was less than 100 nM.
Still for that read-out and setting: then `CC(=O)[C@@H]1CCC[C@H]2[C@@H]3CC[C@@H]4C[C@](C)(O)CC[C@@H]4[C@H]3CC[C@@H]21` [Example 75, 1-((1R,4aS,4bR,6aR,8R,10aS,10bR,12aS)-8-hydroxy-8-methyloctadecahydrochrysen-1-yl)-ethanone], with greater than 1000 nM.
Take `C[C@@]1(O)CC[C@H]2[C@H](CC[C@@H]3[C@@H]2CC[C@H]2[C@H]3CC[C@H]2C(=O)Cn2cc(C#N)cn2)C1` (stereo in doubt) [Example 71]: the IC50 was greater than 1000 nM.

The same assay, now with this note: Table 6, 3 nM [35S]-TBPS, in the presence of 5 mM GABA, read-out: IC50.
As to `C[C@@]1(O)CC[C@@]2(C3CC3)[C@H](CC[C@H]3[C@@H]4CCC[C@H](C(=O)Cn5cc(C#N)cn5)[C@@]4(C)CC[C@@H]32)C1` [Example 87, 1-(2-((1S,4aS,4bS,6aR,8R,10aR,10bS,12aS)-10a-cyclopropyl-8-hydroxy-8,12a-dimethyloctadecahydrochrysen-1-yl)-2-oxoethyl)-1H-pyrazole-4-carbonitrile], the IC50 is less than 100 nM.

In general, IC50 refers to the concentration needed to halve the response being measured.
